According to paper PMC10709135 (iScience, 2023):

Target: T1, fl-KcsA (full-length KcsA) (Streptomyces lividans, UniProt P0A334)
T1 sequence (P0A334 1-160): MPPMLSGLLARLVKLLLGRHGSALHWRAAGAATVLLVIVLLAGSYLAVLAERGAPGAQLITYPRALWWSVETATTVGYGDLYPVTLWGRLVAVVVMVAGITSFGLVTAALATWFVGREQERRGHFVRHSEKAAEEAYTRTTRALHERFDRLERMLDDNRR
Assay: SPR, KcsA immobilised on SAM chip
Format: binding
Conditions: specific blocker; type of constant not given

`CCCC[N+](CCCC)(CCCC)CCCC` [TBA] was tested, and the binding affinity was “The binding affinity of TBA to KcsA deduced from the present SPR study”.
